We go through two molecules from ChEMBL document CHEMBL2040815, “Sentulic acid: a cytotoxic ring A-seco triterpenoid from Sandoricum koetjape Merr” (Bioorg Med Chem Lett, 2012).

In assay [1] the test system is HL-60. Kind of assay: Induction of apoptosis in human HL60 cells assessed as DNA fragmentation laddering at 100 uM by agarose gel electrophoresis. The assay is classed as functional, cell-based.
Assay [2] concerns HL-60. Kind of assay: Induction of apoptosis in human HL60 cells assessed as condensation of chromatin at 50 to 100 uM after 24 hrs by Hoechst 33342 staining. It is filed as functional, cell-based.
Assay [3] relates to HL-60. Kind of assay: Induction of apoptosis in human HL60 cells assessed as fragmentation of the nuclei at 50 to 100 uM after 24 hrs by Hoechst 33342 staining. It is filed as functional, cell-based.
For assay [4], the system named is HL-60. Kind of assay: Cytotoxicity against human HL60 cells after 48 hrs by MTT assay. The assay is classed as functional, cell-based. The note with it: HL-60, 48 h. Background: Formazan colour is commonly taken as a measure of viable cells.
Assay [5] relates to HL-60. Kind of assay: Cytotoxicity against human HL60 cells assessed as decrease in cell viability after 24 to 72 hrs by trypan blue dye exclusion test. It is filed as functional, cell-based.
The test system of assay [6] is HL-60. Kind of assay: Cytotoxicity against human HL60 cells assessed as inhibition of cell proliferation at 25 uM after 24 to 72 hrs by trypan blue dye exclusion test relative to control. It is filed as functional.
In assay [7] the test system is HL-60. Kind of assay: Cytotoxicity against human HL60 cells assessed as inhibition of cell proliferation at 100 uM after 24 to 72 hrs by trypan blue dye exclusion test. The assay is classed as functional, cell-based.

Calls of active or inactive are those of the source. The calls are words filed in the database; no cut-off is given here.

With `CC1(C)CC[C@]2(C)CC[C@]3(C(=O)O)C(=CC[C@@H]4[C@@]5(C)CCC(=O)C(C)(C)[C@@H]5CC[C@]43C)[C@@H]2C1`, the outcome in the assay on HL-60 [1], in the assay with HL-60 [2] and in the assay on HL-60 [3] was Active. Besides, in the assay with HL-60 [4], inhibition was half-maximal at 27.4 µM (IC50). In the assay on HL-60 [5], the Activity result was “Dose-dependent effect”. For the same molecule, the inhibition (as a rule, the relative decrease from the control value, in per cent) at 25 µM in the assay on HL-60 [6] worked out at 50%. For the same molecule, the inhibition result in the assay with HL-60 [7] is “Active”.
As to `C=C(C)[C@@H]1CC[C@]2(C)[C@H](CC=C3[C@@H]4CC(C)(C)CC[C@]4(C)CC[C@]32C(=O)O)[C@@]1(C)CCC(=O)O` [SENTULIC ACID], the result with HL-60 [1], in the assay on HL-60 [2] and in the assay on HL-60 [3] was Active. For the same molecule, the IC50 (as a rule, the concentration that inhibits the measured activity by half) in the assay with HL-60 [4] worked out at 37 µM. Also, the Activity result in the assay on HL-60 [5] is “Dose-dependent effect”. For the same molecule, the inhibition at 25 µM in the assay with HL-60 [6] is 50%. Besides, the inhibition result in the assay on HL-60 [7] was “Active”.
